Patent US20080009418A1, “Selective Inhibitors” (Alchemia LTD., priority 2004, published 2008)

How the values were obtained:
Human opioid (ORL1) = molecular target: T1, Human opioid (ORL1) (Homo sapiens, UniProt P41146); test: Radioligand binding, human opioid ORL1 membranes, FlashPlate, [125I]-Nociceptin; details: compound at 10 μM, [125I]-Nociceptin; for A10: inhibition of radioligand binding: FlashPlate
T1 construct: purchased Perkin Elmer Biosignal
In short: (§1)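 Cloned human receptor membranes were coated onto FlashPlate wells and incubated with radioligand and compound (added from a 0.5 mM DMSO daughter plate) for 1 hour at room temperature in the dark. Scintillation counting gave percent inhibition, with DMSO defining total and reference ligand defining non-specific binding.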

Human κ-Opioid (KOP) = molecular target: T2, Human κ-Opioid (KOP) (Homo sapiens, UniProt P41145); test: Radioligand binding, human κ-opioid (KOP) membranes, filtration, [3H]-Diprenorphine; details: compound at 10 μM, [3H]-Diprenorphine; for A2: inhibition of radioligand binding: filtration
T2 construct: purchased Perkin Elmer Biosignal
In short: (§2)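 Filtration binding on cloned human receptor membranes (1 Unit/well), [125I]-Substance P for NK1 and [3H]-Diprenorphine for KOP, 1 h at room temperature. Filters PEI-presoaked, washed with cold 50 mM Tris-HCl pH 7.4, counted by scintillation; percent inhibition calculated, reference ligand defining non-specific binding.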

Human neurokinin (NK1) = molecular target: T3, Human neurokinin (NK1) (Homo sapiens, UniProt P25103); test: Radioligand binding, human neurokinin NK1 membranes, filtration, [125I]-Substance P; details: compound at 10 μM, [125I]-Substance P; for A8: inhibition of radioligand binding: filtration
T3 construct: purchased Perkin Elmer Biosignal
In short: as §2

[1] = molecular target: T4, Human neuropeptide Y (NPY-Y1) (Homo sapiens, UniProt P25929); test: Radioligand binding, human neuropeptide Y NPY-Y1 membranes, FlashPlate, [125I]-PYY; details: compound at 10 μM, [125I]-PYY; for A9: inhibition of radioligand binding: FlashPlate
T4 construct: purchased Perkin Elmer Biosignal
T4 sequence (P25929 1-384): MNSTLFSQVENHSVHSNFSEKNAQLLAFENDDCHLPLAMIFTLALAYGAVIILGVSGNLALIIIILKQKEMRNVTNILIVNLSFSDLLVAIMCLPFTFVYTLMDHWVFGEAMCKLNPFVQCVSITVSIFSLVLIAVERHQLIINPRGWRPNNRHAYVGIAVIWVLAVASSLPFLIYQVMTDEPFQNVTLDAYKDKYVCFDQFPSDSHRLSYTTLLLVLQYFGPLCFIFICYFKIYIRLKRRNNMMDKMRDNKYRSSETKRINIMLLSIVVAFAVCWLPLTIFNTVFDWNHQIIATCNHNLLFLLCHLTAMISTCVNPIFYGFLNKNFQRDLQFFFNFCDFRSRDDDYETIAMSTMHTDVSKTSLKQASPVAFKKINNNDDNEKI
In short: as §1

Human δ-opioid (DOP) = molecular target: T5, Human δ-opioid (DOP) (Homo sapiens, UniProt P41143); test: Radioligand binding, human δ-opioid (DOP) membranes, FlashPlate, [3H]-Bremazocine; details: compound at 10 μM, [3H]-Bremazocine; for A1: inhibition of radioligand binding: FlashPlate
T5 construct: purchased Perkin Elmer Biosignal
In short: as §1

Human melanocortin (MC5) = molecular target: T6, Human melanocortin (MC5) (Homo sapiens, UniProt P33032); test: Radioligand binding, human melanocortin MC5 membranes, FlashPlate, [125I]-NDP-αMSH; details: compound at 10 μM, [125I]-NDP-αMSH; for A5: inhibition of radioligand binding: FlashPlate
T6 construct: purchased Perkin Elmer Biosignal
In short: as §1

Human μ-opioid (MOP) = molecular target: T7, Human μ-opioid (MOP) (Homo sapiens, UniProt P35372); test: Radioligand binding, human μ-opioid (MOP) membranes, FlashPlate, [3H]-Naloxone; details: compound at 10 μM, [3H]-Naloxone; for A7: inhibition of radioligand binding: FlashPlate
T7 construct: purchased Perkin Elmer Biosignal
In short: as §1

Mouse urotensin (mUR2) = molecular target: T8, Mouse urotensin (mUR2) (Mus musculus, UniProt Q8VIH9); test: Radioligand binding, mouse urotensin mUR2 membranes, FlashPlate, [125I]-Urotensin II; details: compound at 10 μM, [125I]-Urotensin II; for A11: inhibition of radioligand binding: FlashPlate
T8 construct: purchased Perkin Elmer Biosignal
T8 sequence (Q8VIH9 1-385): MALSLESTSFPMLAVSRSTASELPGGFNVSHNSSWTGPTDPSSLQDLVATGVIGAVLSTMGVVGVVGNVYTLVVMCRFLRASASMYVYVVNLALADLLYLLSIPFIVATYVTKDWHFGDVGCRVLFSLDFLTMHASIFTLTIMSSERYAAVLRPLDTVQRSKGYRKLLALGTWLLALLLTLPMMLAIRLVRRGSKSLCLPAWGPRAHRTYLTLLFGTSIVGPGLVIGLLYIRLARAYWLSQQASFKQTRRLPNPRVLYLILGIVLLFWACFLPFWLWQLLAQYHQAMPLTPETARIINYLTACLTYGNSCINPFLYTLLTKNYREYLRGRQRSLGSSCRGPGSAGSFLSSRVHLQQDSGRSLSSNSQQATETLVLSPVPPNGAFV
In short: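 Cloned mouse urotensin (mUR2) receptor membranes from Perkin Elmer Biosignal were immobilized in FlashPlate microplates using a proprietary coating. Each well got 19.5 μl buffer, then 0.5 μl of DMSO, reference ligand, or compound. Adding 5 μl of [125I]-Urotensin II, diluted to 5× final concentration in binding buffer, started binding. Plates were sealed with TopSeal-A and incubated 1 hour at room temperature in the dark. Wells were counted for 30 seconds each on a TopCount after a 60-second delay, and percentage inhibition was calculated.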

Human Melanocortin (MC3) = molecular target: T9, Human Melanocortin (MC3) (Homo sapiens, UniProt P41968); test: Radioligand binding, human melanocortin MC3 membranes, FlashPlate, [125I]-NDP-αMSH; details: compound at 10 μM, [125I]-NDP-αMSH; for A3: inhibition of radioligand binding: FlashPlate
T9 construct: purchased Perkin Elmer Biosignal
In short: as §1

Human Melanocortin (MC4) = molecular target: T10, Human Melanocortin (MC4) (Homo sapiens, UniProt P32245); test: Radioligand binding, human melanocortin MC4 membranes, FlashPlate, [125I]-NDP-αMSH; details: compound at 10 μM, [125I]-NDP-αMSH; for A4: inhibition of radioligand binding: FlashPlate
T10 construct: purchased Perkin Elmer Biosignal
In short: as §1

[2] = molecular target: T11, Human melanin-concentrating hormone (MCH1) (Homo sapiens, UniProt Q99705); test: Radioligand binding, human melanin-concentrating hormone MCH1 membranes, FlashPlate, [125I]-S36057; details: compound at 10 μM; for A6: inhibition of radioligand binding, human melanin-concentrating hormone (MCH1): [125I]-S36057; for A6: inhibition of radioligand binding: [125I]-S36057, FlashPlate
T11 construct: purchased Perkin Elmer Biosignal
In short: as §1

T11 sequence (Q99705 whole entry): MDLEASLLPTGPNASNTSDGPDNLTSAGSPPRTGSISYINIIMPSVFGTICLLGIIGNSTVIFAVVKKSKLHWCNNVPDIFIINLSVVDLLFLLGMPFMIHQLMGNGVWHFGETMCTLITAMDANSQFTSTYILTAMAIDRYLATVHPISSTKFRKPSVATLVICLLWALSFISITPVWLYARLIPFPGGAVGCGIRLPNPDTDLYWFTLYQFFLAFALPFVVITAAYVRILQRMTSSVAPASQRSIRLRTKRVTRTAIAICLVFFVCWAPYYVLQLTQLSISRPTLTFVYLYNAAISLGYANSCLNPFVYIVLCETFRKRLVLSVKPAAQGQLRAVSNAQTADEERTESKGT
T6 sequence (P33032 whole entry): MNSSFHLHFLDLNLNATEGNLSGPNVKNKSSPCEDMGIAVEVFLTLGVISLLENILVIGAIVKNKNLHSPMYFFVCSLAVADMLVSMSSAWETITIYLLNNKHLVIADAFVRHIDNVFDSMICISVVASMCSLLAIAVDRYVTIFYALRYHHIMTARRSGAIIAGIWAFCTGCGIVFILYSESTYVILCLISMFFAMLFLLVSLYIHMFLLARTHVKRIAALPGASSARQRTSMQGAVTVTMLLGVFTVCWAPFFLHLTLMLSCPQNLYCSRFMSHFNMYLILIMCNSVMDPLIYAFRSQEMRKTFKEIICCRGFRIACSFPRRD
T7 sequence (P35372 whole entry): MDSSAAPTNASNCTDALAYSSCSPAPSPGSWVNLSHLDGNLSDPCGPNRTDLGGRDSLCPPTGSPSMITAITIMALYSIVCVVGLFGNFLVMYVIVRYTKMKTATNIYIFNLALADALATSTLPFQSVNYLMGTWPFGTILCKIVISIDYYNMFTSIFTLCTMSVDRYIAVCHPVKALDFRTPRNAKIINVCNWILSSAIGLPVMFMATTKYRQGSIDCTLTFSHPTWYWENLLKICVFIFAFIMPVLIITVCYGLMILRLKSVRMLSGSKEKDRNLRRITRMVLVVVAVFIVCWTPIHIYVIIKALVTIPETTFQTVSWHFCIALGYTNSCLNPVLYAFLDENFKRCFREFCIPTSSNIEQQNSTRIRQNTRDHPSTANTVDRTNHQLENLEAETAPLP
T2 sequence (P41145 whole entry): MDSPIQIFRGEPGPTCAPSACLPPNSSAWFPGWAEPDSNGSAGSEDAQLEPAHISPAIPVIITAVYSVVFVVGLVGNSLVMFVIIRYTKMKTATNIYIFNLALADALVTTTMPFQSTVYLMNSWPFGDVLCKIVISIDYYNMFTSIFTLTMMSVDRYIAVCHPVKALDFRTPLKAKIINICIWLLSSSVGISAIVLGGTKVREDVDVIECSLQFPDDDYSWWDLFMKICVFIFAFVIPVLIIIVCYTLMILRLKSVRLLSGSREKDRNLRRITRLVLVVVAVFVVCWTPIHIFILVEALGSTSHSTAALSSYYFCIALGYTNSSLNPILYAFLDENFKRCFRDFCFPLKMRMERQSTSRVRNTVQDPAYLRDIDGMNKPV
T5 sequence (P41143 whole entry): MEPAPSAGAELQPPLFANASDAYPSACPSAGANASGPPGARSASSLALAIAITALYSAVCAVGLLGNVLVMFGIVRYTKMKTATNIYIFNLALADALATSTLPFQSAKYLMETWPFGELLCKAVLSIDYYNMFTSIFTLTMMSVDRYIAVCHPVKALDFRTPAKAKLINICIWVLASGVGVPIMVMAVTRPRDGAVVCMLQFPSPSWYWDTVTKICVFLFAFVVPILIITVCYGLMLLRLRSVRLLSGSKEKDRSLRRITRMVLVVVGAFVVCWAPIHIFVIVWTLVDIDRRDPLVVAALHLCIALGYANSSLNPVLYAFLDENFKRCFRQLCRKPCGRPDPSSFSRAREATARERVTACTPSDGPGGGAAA
T10 sequence (P32245 whole entry): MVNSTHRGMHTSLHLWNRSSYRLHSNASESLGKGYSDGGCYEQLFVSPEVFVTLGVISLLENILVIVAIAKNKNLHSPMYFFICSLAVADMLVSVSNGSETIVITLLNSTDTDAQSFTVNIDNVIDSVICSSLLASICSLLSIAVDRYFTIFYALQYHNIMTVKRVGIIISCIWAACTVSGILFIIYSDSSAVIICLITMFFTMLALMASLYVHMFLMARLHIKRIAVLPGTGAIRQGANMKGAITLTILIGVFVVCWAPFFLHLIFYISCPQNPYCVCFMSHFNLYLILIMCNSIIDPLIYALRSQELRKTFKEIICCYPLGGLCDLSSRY
T3 sequence (P25103 whole entry): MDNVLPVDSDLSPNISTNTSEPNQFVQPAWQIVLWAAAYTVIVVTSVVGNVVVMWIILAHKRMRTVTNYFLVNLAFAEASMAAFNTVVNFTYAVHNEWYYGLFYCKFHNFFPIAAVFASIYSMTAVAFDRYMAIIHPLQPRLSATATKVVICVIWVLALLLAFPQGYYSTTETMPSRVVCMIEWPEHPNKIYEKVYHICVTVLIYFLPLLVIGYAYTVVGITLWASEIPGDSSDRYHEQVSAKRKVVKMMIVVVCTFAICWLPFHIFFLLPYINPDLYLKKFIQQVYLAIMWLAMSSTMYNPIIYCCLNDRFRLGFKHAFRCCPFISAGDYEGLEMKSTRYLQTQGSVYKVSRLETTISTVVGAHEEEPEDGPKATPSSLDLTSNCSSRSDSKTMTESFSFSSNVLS
T9 sequence (P41968 whole entry): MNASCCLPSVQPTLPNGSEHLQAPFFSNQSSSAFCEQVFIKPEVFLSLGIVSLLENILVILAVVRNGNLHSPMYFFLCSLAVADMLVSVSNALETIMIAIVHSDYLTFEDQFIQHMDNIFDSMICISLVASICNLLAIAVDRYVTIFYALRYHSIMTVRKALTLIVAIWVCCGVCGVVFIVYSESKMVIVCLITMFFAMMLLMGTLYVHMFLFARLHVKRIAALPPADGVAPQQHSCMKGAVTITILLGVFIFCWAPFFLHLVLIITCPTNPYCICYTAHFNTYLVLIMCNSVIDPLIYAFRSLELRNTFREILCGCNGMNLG
T1 sequence (P41146 whole entry): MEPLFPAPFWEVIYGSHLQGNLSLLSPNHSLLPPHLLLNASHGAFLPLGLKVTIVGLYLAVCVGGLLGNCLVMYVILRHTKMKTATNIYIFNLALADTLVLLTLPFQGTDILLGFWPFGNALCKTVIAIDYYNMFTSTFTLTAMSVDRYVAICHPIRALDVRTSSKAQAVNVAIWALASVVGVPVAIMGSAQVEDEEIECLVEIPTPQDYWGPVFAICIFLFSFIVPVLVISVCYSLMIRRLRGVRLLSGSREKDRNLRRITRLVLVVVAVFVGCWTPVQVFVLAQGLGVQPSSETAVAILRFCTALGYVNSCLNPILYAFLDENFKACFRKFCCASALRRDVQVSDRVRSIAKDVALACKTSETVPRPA

Row | SMILES | A10: inhibition of radioligand binding, human opioid (ORL1) (Human opioid (ORL1)) | A2: inhibition of radioligand binding, human κ-opioid (KOP) (Human κ-Opioid (KOP)) | A8: inhibition of radioligand binding, human neurokinin (NK1) (Human neurokinin (NK1)) | A9: inhibition of radioligand binding, human neuropeptide Y (NPY-Y1) [1] | A1: inhibition of radioligand binding, human δ-opioid (DOP) (Human δ-opioid (DOP)) | A5: inhibition of radioligand binding, human melanocortin (MC5) (Human melanocortin (MC5)) | A7: inhibition of radioligand binding, human μ-opioid (MOP) (Human μ-opioid (MOP)) | A11: inhibition of radioligand binding, mouse urotensin (mUR2) (Mouse urotensin (mUR2)) | A3: inhibition of radioligand binding, human melanocortin (MC3) (Human Melanocortin (MC3)) | A4: inhibition of radioligand binding, human melanocortin (MC4) (Human Melanocortin (MC4)) | A6: inhibition of radioligand binding, human melanin-concentrating hormone (MCH1) [2] | A10: inhibition of radioligand binding (Human opioid (ORL1)) | A2: inhibition of radioligand binding (Human κ-Opioid (KOP)) | A8: inhibition of radioligand binding (Human neurokinin (NK1)) | A9: inhibition of radioligand binding [1] | A1: inhibition of radioligand binding (Human δ-opioid (DOP)) | A5: inhibition of radioligand binding (Human melanocortin (MC5)) | A7: inhibition of radioligand binding (Human μ-opioid (MOP)) | A11: inhibition of radioligand binding (Mouse urotensin (mUR2)) | A3: inhibition of radioligand binding (Human Melanocortin (MC3)) | also measured
1 | CSC1OC(COCc2ccccc2)C(O)C(OCc2ccc3ccccc3c2)C1NC(=O)CN (stereo not drawn) [compound 301] | − (“−” indicates less than 50% inhibition at 10 μM) | − (“−” indicates less than 50% inhibition at 10 μM) | + (“+” indicates greater than 50% inhibition at 10 μM) | − (“−” indicates less than 50% inhibition at 10 μM) | − (“−” indicates less than 50% inhibition at 10 μM) | − (“−” indicates less than 50% inhibition at 10 μM) | − (“−” indicates less than 50% inhibition at 10 μM) | − (“−” indicates less than 50% inhibition at 10 μM) | − (“−” indicates less than 50% inhibition at 10 μM) | − (“−” indicates less than 50% inhibition at 10 μM) | − (“−” indicates less than 50% inhibition at 10 μM) |  |  |  |  |  |  |  |  |  | 
2 | N=C(N)NCCC(=O)N[C@H]1C(OCc2ccc(Cl)cc2)O[C@H](COCc2ccccc2)[C@@H](O)[C@@H]1OCc1ccc2ccccc2c1 (stereo partly drawn) [compound 531] | + (“+” indicates greater than 50% inhibition at 10 μM) | + (“+” indicates greater than 50% inhibition at 10 μM) | + (“+” indicates greater than 50% inhibition at 10 μM) | − (“−” indicates less than 50% inhibition at 10 μM) | − (“−” indicates less than 50% inhibition at 10 μM) | + (“+” indicates greater than 50% inhibition at 10 μM) | + (“+” indicates greater than 50% inhibition at 10 μM) | − (“−” indicates less than 50% inhibition at 10 μM) | + (“+” indicates greater than 50% inhibition at 10 μM) | + (“+” indicates greater than 50% inhibition at 10 μM) | + (“+” indicates greater than 50% inhibition at 10 μM) |  |  |  |  |  |  |  |  |  | 
3 | CSC1O[C@H](COCc2ccc(-c3ccccc3)cc2)[C@@H](O)[C@@H](OCc2ccc(-c3ccccc3)cc2)[C@H]1NC(=O)CCCN (stereo partly drawn) [compound 294] | − (“−” indicates less than 50% inhibition at 10 μM) | − (“−” indicates less than 50% inhibition at 10 μM) | + (“+” indicates greater than 50% inhibition at 10 μM) | − (“−” indicates less than 50% inhibition at 10 μM) | − (“−” indicates less than 50% inhibition at 10 μM) | + (“+” indicates greater than 50% inhibition at 10 μM) | − (“−” indicates less than 50% inhibition at 10 μM) | − (“−” indicates less than 50% inhibition at 10 μM) | − (“−” indicates less than 50% inhibition at 10 μM) | − (“−” indicates less than 50% inhibition at 10 μM) | − (“−” indicates less than 50% inhibition at 10 μM) |  |  |  |  |  |  |  |  |  | 
4 | COCC1OC(OCc2ccc3ccccc3c2)C(NC(=O)CNC(=N)N)C(OCc2ccccc2)C1O (stereo not drawn) [compound 230] |  |  |  |  |  |  |  |  |  |  |  | − (“−” indicates less than 50% inhibition at 10 μM) | − (“−” indicates less than 50% inhibition at 10 μM) | + (“+” indicates greater than 50% inhibition at 10 μM) | − (“−” indicates less than 50% inhibition at 10 μM) | − (“−” indicates less than 50% inhibition at 10 μM) | + (“+” indicates greater than 50% inhibition at 10 μM) | − (“−” indicates less than 50% inhibition at 10 μM) | − (“−” indicates less than 50% inhibition at 10 μM) | − (“−” indicates less than 50% inhibition at 10 μM) | A4: inhibition of radioligand binding (Human Melanocortin (MC4)): − (“−” indicates less than 50% inhibition at 10 μM); A6: inhibition of radioligand binding [2]: − (“−” indicates less than 50% inhibition at 10 μM)
5 | CO[C@H]1[C@H](O)[C@@H](COCc2ccc3ccccc3c2)OC(OCc2ccc(Cl)cc2)[C@@H]1NC(=O)C1CCN(C(=N)N)CC1 (stereo partly drawn) [compound 354] | − (“−” indicates less than 50% inhibition at 10 μM) | − (“−” indicates less than 50% inhibition at 10 μM) | + (“+” indicates greater than 50% inhibition at 10 μM) | − (“−” indicates less than 50% inhibition at 10 μM) | − (“−” indicates less than 50% inhibition at 10 μM) | + (“+” indicates greater than 50% inhibition at 10 μM) | − (“−” indicates less than 50% inhibition at 10 μM) | − (“−” indicates less than 50% inhibition at 10 μM) | − (“−” indicates less than 50% inhibition at 10 μM) | + (“+” indicates greater than 50% inhibition at 10 μM) | − (“−” indicates less than 50% inhibition at 10 μM) |  |  |  |  |  |  |  |  |  | 
6 | COCC1OC(OCc2ccc3ccccc3c2)C(NC(=O)CN)C(OCc2ccc(Cl)cc2)C1O (stereo not drawn) [compound 235] |  |  |  |  |  |  |  |  |  |  |  | − (“−” indicates less than 50% inhibition at 10 μM) | − (“−” indicates less than 50% inhibition at 10 μM) | + (“+” indicates greater than 50% inhibition at 10 μM) | − (“−” indicates less than 50% inhibition at 10 μM) | + (“+” indicates greater than 50% inhibition at 10 μM) | − (“−” indicates less than 50% inhibition at 10 μM) | − (“−” indicates less than 50% inhibition at 10 μM) | − (“−” indicates less than 50% inhibition at 10 μM) | − (“−” indicates less than 50% inhibition at 10 μM) | A4: inhibition of radioligand binding (Human Melanocortin (MC4)): − (“−” indicates less than 50% inhibition at 10 μM); A6: inhibition of radioligand binding [2]: − (“−” indicates less than 50% inhibition at 10 μM)
